Counter-ions that a name gives are not always drawn. Like-named read-outs stand apart in the source and are kept apart here.
Experiment: Phase 1a single ascending dose study: UV-4 plasma concentrations and PK parameters (LC-MS/MS, noncompartmental)
Assay type: in vivo
Conditions: for Tmax: median; for AUC(0-t): read-out: AUC(0-8); for Vd/F: read-out: Vz/F
Protocol: UV-4 ((2R,3R,4R,5S)-2-(hydroxymethyl)-1-(9-methoxynonyl)piperidine-3,4,5-triol, also called N-(9’-methoxynonyl)-1-deoxynojirimycin, or MON-DNJ) hydrochloride was evaluated in a first-in-human, randomized, single-center, double-blind, placebo-controlled, parallel group, single ascending dose Phase 1a clinical trial in healthy subjects (Figs 1 and 2, ClinicalTrials.gov Identifier NCT02061358 https://clinicaltrials.gov/ct2/show/NCT02061358). The primary objective was to determine the safety and tolerability of a single-ascending oral dose of UV-4 hydrochloride (Fig 3). […] The secondary objective was to determine PK parameters describing absorption and elimination of UV-4 following a single oral dose of UV-4 hydrochloride. Eight cohorts of eight subjects each were enrolled and completed the study. In each cohort, six subjects received UV-4 as the hydrochloride; two received placebo. Subjects were screened against study eligibility criteria up to four weeks (Days -28 to -2) before admission to the clinic (Day -1). Dosing was performed on an inpatient basis. Subjects remained in clinic for 48 hours post-dosing for PK sample collection and safety assessments and were discharged from the clinic on Day 3. Subjects returned to the clinic on Day 4 for additional safety assessments, then again on Day 9 ± 1 for a final follow-up visit.
Eligible subjects were healthy males and females, age 18–45 years, with a body mass index between 18 and 30 kg/m^2 inclusive and a minimum body weight of 60 kg. Subjects were considered healthy based on medical history, physical exam, vital signs, 12-lead electrocardiogram (ECG), clinical laboratory tests (hematology, blood chemistry, urinalysis), viral serology, and drug and alcohol screening. Male and female subjects of childbearing potential were required to use adequate contraception over the course of the clinical trial. […] Only subjects who met all inclusion and none of the exclusion criteria prior to administration of the investigational product were enrolled into the study (no exemptions were granted). A total of 64 subjects were enrolled (eight cohorts of eight subjects each). In each of the eight cohorts, six subjects were randomized to receive a single dose of UV-4 (3 to 1000 mg, depending on cohort) as the hydrochloride salt, and two subjects to receive placebo. Cohort size of six active subjects was based on analysis that increasing cohort size above six in a first-in-human study gains little in the ability to observe a drug induced event, and results in observing more events that are not related to study drug. Two of the eight subjects in each cohort (sentinel subjects; one active and one placebo) received their doses at least 48 h before the remaining subjects in each cohort.
On each day of use, bulk drug substance (UV-4B for solubilization, SAI Life Sciences Ltd. Telangana, India) was removed from a single-use container, weighed at the study center, and solubilized in 20 mL sterile water for injection (SWFI) (Hospira Inc. Illinois, United States of America). Weight of solid drug substance was converted to dose of UV-4 by applying purity and salt correction factor per pharmacy manual when preparing the dosing solution. UV-4B solution was administered orally with 10 mL of taste-masking agent, OraSweet-SF (Paddock Laboratories LLC, Minneapolis, United States of America) in a total volume of 30 mL, to assist in maintaining study blinding. Placebo was SWFI (20 mL) plus OraSweet-SF (10 mL). Concentrations and doses were calculated and expressed as the active free base form, UV-4. This methodology is consistent with USP<1121>, which recommends that the strength of a drug product or preparation is expressed in terms of the active moiety. Following consumption of active or placebo solution, the dosing container was rinsed with 50 mL of tap water also consumed by subjects. […]

[1] = 3 mg single oral dose, Geo Mean
[2] = 10 mg single oral dose, Ar Mean
[3] = 10 mg single oral dose, Geo Mean
[4] = 30 mg single oral dose, Ar Mean
[5] = 30 mg single oral dose, Geo Mean
[6] = 90 mg single oral dose, Ar Mean
[7] = 90 mg single oral dose, Geo Mean
[8] = 180 mg single oral dose, Ar Mean
[9] = 180 mg single oral dose, Geo Mean
[10] = 360 mg single oral dose, Ar Mean
[11] = 360 mg single oral dose, Geo Mean
[12] = 720 mg single oral dose, Ar Mean
[13] = 720 mg single oral dose, Geo Mean
[14] = 1000 mg single oral dose, Ar Mean
[15] = 1000 mg single oral dose, Geo Mean
[16] = both sexes, human, plasma, po, 3 mg, 3 mg single oral dose, Ar Mean
[17] = both sexes, human, plasma, po, 3 mg, 3 mg single oral dose, Geo Mean
[18] = both sexes, human, plasma, po, 10 mg, 10 mg single oral dose, Ar Mean
[19] = both sexes, human, plasma, po, 10 mg, 10 mg single oral dose, Geo Mean
[20] = both sexes, human, plasma, po, 30 mg, 30 mg single oral dose, Ar Mean
[21] = both sexes, human, plasma, po, 30 mg, 30 mg single oral dose, Geo Mean
[22] = both sexes, human, plasma, po, 90 mg, 90 mg single oral dose, Ar Mean
[23] = both sexes, human, plasma, po, 90 mg, 90 mg single oral dose, Geo Mean
[24] = both sexes, human, plasma, po, 180 mg, 180 mg single oral dose, Ar Mean
[25] = both sexes, human, plasma, po, 180 mg, 180 mg single oral dose, Geo Mean
[26] = both sexes, human, plasma, po, 360 mg, 360 mg single oral dose, Ar Mean
[27] = both sexes, human, plasma, po, 360 mg, 360 mg single oral dose, Geo Mean
[28] = both sexes, human, plasma, po, 720 mg, 720 mg single oral dose, Ar Mean
[29] = both sexes, human, plasma, po, 720 mg, 720 mg single oral dose, Geo Mean
[30] = both sexes, human, plasma, po, 1000 mg, 1000 mg single oral dose, Ar Mean
[31] = both sexes, human, plasma, po, 1000 mg, 1000 mg single oral dose, Geo Mean

COCCCCCCCCCN1C[C@H](O)[C@@H](O)[C@H](O)[C@H]1CO [UV-4B, N-(9’-methoxynonyl)-1-deoxynojirimycin hydrochloride]
AUC(0-inf) (3 mg single oral dose, Ar Mean): 0.0956 µg·h/mL | CL/F (3 mg single oral dose, Ar Mean): 32.1 L/h | Cmax (3 mg single oral dose, Ar Mean): 0.0224 µg/mL | DNAUC(0-inf) (3 mg single oral dose, Ar Mean): 31.9 ng·h/mL/mg | DNCmax (3 mg single oral dose, Ar Mean): 7.45 ng/mL/mg | t1/2 (3 mg single oral dose, Ar Mean): 10.7 h | CL/F [1]: 31.7 L/h | Cmax [1]: 0.0221 µg/mL | DNAUC(0-inf) [1]: 31.5 ng·h/mL/mg | DNCmax [1]: 7.38 ng/mL/mg | t1/2 [1]: 10.3 h | Tmax (3 mg single oral dose): 0.50 h | CL/F [2]: 24.3 L/h | Cmax [2]: 0.0846 µg/mL | DNAUC(0-inf) [2]: 43.1 ng·h/mL/mg | DNCmax [2]: 8.46 ng/mL/mg | t1/2 [2]: 12.0 h | CL/F [3]: 23.8 L/h | Cmax [3]: 0.0826 µg/mL | DNAUC(0-inf) [3]: 42.0 ng·h/mL/mg | DNCmax [3]: 8.26 ng/mL/mg | t1/2 [3]: 11.9 h | Tmax (10 mg single oral dose): 1.00 h | CL/F [4]: 24.0 L/h | Cmax [4]: 0.293 µg/mL | DNAUC(0-inf) [4]: 42.0 ng·h/mL/mg | DNCmax [4]: 9.76 ng/mL/mg | t1/2 [4]: 10.0 h | CL/F [5]: 23.9 L/h | Cmax [5]: 0.289 µg/mL | DNAUC(0-inf) [5]: 41.8 ng·h/mL/mg | DNCmax [5]: 9.64 ng/mL/mg | t1/2 [5]: 9.98 h | Tmax (30 mg single oral dose): 0.50 h | CL/F [6]: 24.5 L/h | Cmax [6]: 0.946 µg/mL | DNAUC(0-inf) [6]: 41.4 ng·h/mL/mg | DNCmax [6]: 10.5 ng/mL/mg | t1/2 [6]: 10.4 h | CL/F [7]: 24.3 L/h | Cmax [7]: 0.9 µg/mL | DNAUC(0-inf) [7]: 41.1 ng·h/mL/mg | DNCmax [7]: 10.0 ng/mL/mg | t1/2 [7]: 10.2 h | Tmax (90 mg single oral dose): 0.50 h | CL/F [8]: 25.4 L/h | Cmax [8]: 2.15 µg/mL | DNAUC(0-inf) [8]: 39.5 ng·h/mL/mg | DNCmax [8]: 12.0 ng/mL/mg | t1/2 [8]: 8.71 h | CL/F [9]: 25.4 L/h | Cmax [9]: 2.06 µg/mL | DNAUC(0-inf) [9]: 39.4 ng·h/mL/mg | DNCmax [9]: 11.5 ng/mL/mg | t1/2 [9]: 8.66 h | Tmax (180 mg single oral dose): 0.75 h | CL/F [10]: 26.5 L/h | Cmax [10]: 4.57 µg/mL | DNAUC(0-inf) [10]: 38.4 ng·h/mL/mg | DNCmax [10]: 12.7 ng/mL/mg | t1/2 [10]: 8.14 h | CL/F [11]: 26.3 L/h | Cmax [11]: 4.49 µg/mL | DNAUC(0-inf) [11]: 38.1 ng·h/mL/mg | DNCmax [11]: 12.5 ng/mL/mg | t1/2 [11]: 8.11 h | Tmax (360 mg single oral dose): 0.50 h | CL/F [12]: 22.1 L/h | Cmax [12]: 9.93 µg/mL | DNAUC(0-inf) [12]: 45.7 ng·h/mL/mg | DNCmax [12]: 13.8 ng/mL/mg | t1/2 [12]: 8.19 h | CL/F [13]: 22.0 L/h | Cmax [13]: 9.76 µg/mL | DNAUC(0-inf) [13]: 45.5 ng·h/mL/mg | DNCmax [13]: 13.6 ng/mL/mg | t1/2 [13]: 8.18 h | Tmax (720 mg single oral dose): 0.75 h | CL/F [14]: 23.6 L/h | Cmax [14]: 13.1 µg/mL | DNAUC(0-inf) [14]: 43.1 ng·h/mL/mg | DNCmax [14]: 13.1 ng/mL/mg | t1/2 [14]: 8.83 h | CL/F [15]: 23.4 L/h | Cmax [15]: 13 µg/mL | DNAUC(0-inf) [15]: 42.8 ng·h/mL/mg | DNCmax [15]: 13.0 ng/mL/mg | t1/2 [15]: 8.58 h | Tmax (1000 mg single oral dose): 1.00 h | AUC(0-t) [16]: 0.0565 µg·h/mL | Vd/F [16]: 491 L | AUC(0-t) [17]: 0.0559 µg·h/mL | AUC(0-inf) (both sexes, human, plasma, po, 3 mg, 3 mg single oral dose, Geo Mean, read-out: AUC(0-inf)): 0.0946 µg·h/mL | Vd/F [17]: 470 L | AUC(0-t) [18]: 0.271 µg·h/mL | AUC(0-inf) (both sexes, human, plasma, po, 10 mg, 10 mg single oral dose, Ar Mean, read-out: AUC(0-inf)): 0.431 µg·h/mL | Vd/F [18]: 424 L | AUC(0-t) [19]: 0.265 µg·h/mL | AUC(0-inf) (both sexes, human, plasma, po, 10 mg, 10 mg single oral dose, Geo Mean, read-out: AUC(0-inf)): 0.42 µg·h/mL | Vd/F [19]: 409 L | AUC(0-t) [20]: 0.901 µg·h/mL | AUC(0-inf) (both sexes, human, plasma, po, 30 mg, 30 mg single oral dose, Ar Mean, read-out: AUC(0-inf)): 1.26 µg·h/mL | Vd/F [20]: 349 L | AUC(0-t) [21]: 0.896 µg·h/mL | AUC(0-inf) (both sexes, human, plasma, po, 30 mg, 30 mg single oral dose, Geo Mean, read-out: AUC(0-inf)): 1.26 µg·h/mL | Vd/F [21]: 344 L | AUC(0-t) [22]: 2.8 µg·h/mL | AUC(0-inf) (both sexes, human, plasma, po, 90 mg, 90 mg single oral dose, Ar Mean, read-out: AUC(0-inf)): 3.73 µg·h/mL | Vd/F [22]: 365 L | AUC(0-t) [23]: 2.79 µg·h/mL | AUC(0-inf) (both sexes, human, plasma, po, 90 mg, 90 mg single oral dose, Geo Mean, read-out: AUC(0-inf)): 3.7 µg·h/mL | Vd/F [23]: 358 L | AUC(0-t) [24]: 5.91 µg·h/mL | AUC(0-inf) (both sexes, human, plasma, po, 180 mg, 180 mg single oral dose, Ar Mean, read-out: AUC(0-inf)): 7.11 µg·h/mL | Vd/F [24]: 321 L | AUC(0-t) [25]: 5.88 µg·h/mL | AUC(0-inf) (both sexes, human, plasma, po, 180 mg, 180 mg single oral dose, Geo Mean, read-out: AUC(0-inf)): 7.09 µg·h/mL | Vd/F [25]: 317 L | AUC(0-t) [26]: 11.9 µg·h/mL | AUC(0-inf) (both sexes, human, plasma, po, 360 mg, 360 mg single oral dose, Ar Mean, read-out: AUC(0-inf)): 13.8 µg·h/mL | Vd/F [26]: 309 L | AUC(0-t) [27]: 11.8 µg·h/mL | AUC(0-inf) (both sexes, human, plasma, po, 360 mg, 360 mg single oral dose, Geo Mean, read-out: AUC(0-inf)): 13.7 µg·h/mL | Vd/F [27]: 308 L | AUC(0-t) [28]: 29.1 µg·h/mL | AUC(0-inf) (both sexes, human, plasma, po, 720 mg, 720 mg single oral dose, Ar Mean, read-out: AUC(0-inf)): 32.9 µg·h/mL | Vd/F [28]: 260 L | AUC(0-t) [29]: 28.9 µg·h/mL | AUC(0-inf) (both sexes, human, plasma, po, 720 mg, 720 mg single oral dose, Geo Mean, read-out: AUC(0-inf)): 32.8 µg·h/mL | Vd/F [29]: 259 L | AUC(0-t) [30]: 38.7 µg·h/mL | AUC(0-inf) (both sexes, human, plasma, po, 1000 mg, 1000 mg single oral dose, Ar Mean, read-out: AUC(0-inf)): 43.1 µg·h/mL | Vd/F [30]: 299 L | AUC(0-t) [31]: 38.5 µg·h/mL | AUC(0-inf) (both sexes, human, plasma, po, 1000 mg, 1000 mg single oral dose, Geo Mean, read-out: AUC(0-inf)): 42.8 µg·h/mL | Vd/F [31]: 290 L

From article PMC9387934, “Randomized single oral dose phase 1 study of safety, tolerability, and pharmacokinetics of Iminosugar UV-4 Hydrochloride (UV-4B) in healthy subjects” (PLoS Neglected Tropical Diseases, 2022)
